# In patent US9382197B2, “Substituted hydroxamic acids and uses thereof” (Millennium Pharmaceuticals, Inc., priority 2010, dated 2016):
# pIC50: −log10 of the molar value.
# Target: T1, purified human HDAC6 (Homo sapiens, UniProt Q9UBN7)
# T1 construct: purchased BPS Bioscience 5006
# T1 sequence (Q9UBN7 1-1215): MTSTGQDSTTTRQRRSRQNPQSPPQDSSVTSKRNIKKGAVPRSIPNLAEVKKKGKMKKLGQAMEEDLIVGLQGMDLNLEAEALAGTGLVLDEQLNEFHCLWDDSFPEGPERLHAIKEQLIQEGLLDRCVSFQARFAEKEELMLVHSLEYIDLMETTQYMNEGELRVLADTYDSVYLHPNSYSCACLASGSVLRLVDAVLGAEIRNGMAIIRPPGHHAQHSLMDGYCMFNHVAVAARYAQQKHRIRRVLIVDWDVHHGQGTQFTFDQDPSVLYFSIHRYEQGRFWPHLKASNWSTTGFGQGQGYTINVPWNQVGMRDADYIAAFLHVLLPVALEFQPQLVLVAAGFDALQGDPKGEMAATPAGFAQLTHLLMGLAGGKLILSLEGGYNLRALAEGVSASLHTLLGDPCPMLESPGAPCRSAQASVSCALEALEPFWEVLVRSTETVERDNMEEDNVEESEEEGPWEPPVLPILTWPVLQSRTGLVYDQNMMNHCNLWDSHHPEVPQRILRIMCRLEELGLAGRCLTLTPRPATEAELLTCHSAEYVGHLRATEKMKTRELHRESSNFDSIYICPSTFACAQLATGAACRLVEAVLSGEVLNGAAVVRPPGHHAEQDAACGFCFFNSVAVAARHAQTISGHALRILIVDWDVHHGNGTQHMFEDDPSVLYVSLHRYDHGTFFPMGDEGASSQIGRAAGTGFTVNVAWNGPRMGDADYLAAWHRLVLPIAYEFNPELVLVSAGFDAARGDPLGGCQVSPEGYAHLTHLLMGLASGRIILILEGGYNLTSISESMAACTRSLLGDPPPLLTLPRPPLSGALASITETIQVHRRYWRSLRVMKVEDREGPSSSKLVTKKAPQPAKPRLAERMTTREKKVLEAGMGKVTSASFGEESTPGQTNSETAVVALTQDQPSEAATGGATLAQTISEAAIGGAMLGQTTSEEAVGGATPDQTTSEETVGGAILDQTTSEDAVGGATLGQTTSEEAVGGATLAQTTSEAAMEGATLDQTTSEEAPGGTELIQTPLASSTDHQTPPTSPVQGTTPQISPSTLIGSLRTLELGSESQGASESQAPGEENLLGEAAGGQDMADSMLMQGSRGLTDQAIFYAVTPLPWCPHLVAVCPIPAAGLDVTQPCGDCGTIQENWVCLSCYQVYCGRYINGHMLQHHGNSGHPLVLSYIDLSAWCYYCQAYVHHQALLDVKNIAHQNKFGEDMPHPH
# Assay: HDAC6 Enzyme Assay
# Format: biochemical
# Conditions: bin: greater than 500 nM and less than 1 μM (lower bound in nM, upper bound in μM)
# Procedure, shortened: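 Deacetylated product quantified after trypsin digestion as released AMC (340/460 nm), following a 1 h, 30 °C reaction of human HDAC6 with Ac-RGK(Ac)-AMC peptide, quenched by trichostatin A. IC50 derived from DMSO-normalized curves.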
row,IC50,SMILES
1,500 to 1000 nM,"CC(NC(=O)NC(C)(C)C)c1ccc(C(=O)NO)cc1 (stereo not drawn) [Compound I-339, 4-(1-{[(tert-butylamino)carbonyl]amino}ethyl)-N-hydroxybenzamide]"
2,500 to 1000 nM,"CC(NC(=O)c1ccc(C(F)(F)F)cc1)c1cccc(C(=O)NO)c1 (stereo not drawn) [Compound I-151, N-hydroxy-3-(1-{[4-(trifluoromethyl)benzoyl]amino}ethyl)benzamide]"
3,500 to 1000 nM,"Cn1c(C(=O)N[C@@H](c2ccc(C(=O)NO)cc2)C(F)(F)F)cc(Cl)c1Cl [Compound I-108, 4,5-dichloro-1-methyl-N-((1S)-2,2,2-trifluoro-1-{4-[(hydroxyamino)carbonyl]phenyl}ethyl)-1H-pyrrole-2-carboxamide]"
4,500 to 1000 nM,"C[C@@H](NC(=O)c1cccn1C)c1cccc(C(=O)NO)c1 [Compound I-271, N-((1R)-1-{3-[(hydroxyamino)carbonyl]phenyl}ethyl)-1-methyl-1H-pyrrole-2-carboxamide]"
5,500 to 1000 nM,"CC(NC(=O)C1(c2ccc(Cl)cc2)CC1)c1cccc(C(=O)NO)c1 (stereo not drawn) [Compound I-183, 3-[1-({[1-(4-chlorophenyl)cyclopropyl]carbonyl}amino)ethyl]-N-hydroxybenzamide]"
6,500 to 1000 nM,"CC(C)(C)C(NC(=O)c1cc(C(F)(F)F)cc(C(F)(F)F)c1)c1ccc(C(=O)NO)cc1 (stereo not drawn) [Compound I-52, N-(1-{4-[(hydroxyamino)carbonyl]phenyl}-2,2-dimethylpropyl)-3,5-bis(trifluoromethyl)benzamide]"

# Same assay, conditions: bin: greater than 1 μM
row,pIC50,SMILES
1,< 6.00,"Cc1cc(C(=O)NO)ccc1C(C)NC(=O)C(C)(C)C (stereo not drawn) [Compound I-490, 4-{1-[(2,2-dimethylpropanoyl)amino]ethyl}-N-hydroxy-3-methylbenzamide]"
2,< 6.00,"CC(C)(C)C(NC(=O)C1CCCC1)c1ccc(C(=O)NO)cc1 (stereo not drawn) [Compound I-373, 4-{1-[(cyclopentylcarbonyl)amino]-2,2-dimethylpropyl}-N-hydroxybenzamide]"
3,< 6.00,"CC(C)(C)CC(=O)NC(c1ccc(C(=O)NO)cc1)C(C)(C)C (stereo not drawn) [Compound I-396, 4-{1-[(3,3-dimethylbutanoyl)amino]-2,2-dimethylpropyl}-N-hydroxybenzamide]"
4,< 6.00,"CC(NC(=O)C1CCCC1)c1cccc(C(=O)NO)c1 (stereo not drawn) [Compound I-311, 3-{1-[(cyclopentylcarbonyl)amino]ethyl}-N-hydroxybenzamide]"

# Same assay, conditions: purified human HDAC6, substrate Ac-Arg-Gly-Lys(Ac)-AMC, 1 hour at 30° C.; reported as bins
row,pIC50,SMILES
1,6.30 to 7.00,"CC(C)C(NC(=O)c1cc(C(C)(C)C)nn1Cc1ccccc1)c1ccc(C(=O)NO)cc1 (stereo not drawn) [Compound I-77, 1-benzyl-3-tert-butyl-N-(1-{4-[(hydroxyamino)carbonyl]phenyl}-2-methylpropyl)-1H-pyrazole-5-carboxamide]"
2,6.30 to 7.00,"Cc1cc(C(=O)NC(c2ccc(C(=O)NO)cc2)C(C)(C)C)nn1C (stereo not drawn) [Compound I-260, N-(1-{4-[(hydroxyamino)carbonyl]phenyl}-2,2-dimethylpropyl)-1,5-dimethyl-1H-pyrazole-3-carboxamide]"
3,> 7.00,"CC(=O)c1cccc(NC(=O)NC(C)c2ccc(C(=O)NO)cc2)c1 (stereo not drawn) [Compound I-358, 4-[1-({[(3-acetylphenyl)amino]carbonyl}amino)ethyl]-N-hydroxybenzamide]"
4,6.30 to 7.00,"C[C@@H](NC(=O)c1cc2ccccc2o1)c1cccc(C(=O)NO)c1 [Compound I-201, N-((1R)-1-{3-[(hydroxyamino)carbonyl]phenyl}ethyl)-1-benzofuran-2-carboxamide]"
5,6.30 to 7.00,"C[C@@H](NC(=O)c1cc(Cl)c(Cl)n1C)c1cccc(C(=O)NO)c1 [Compound I-301, 4,5-dichloro-N-((1R)-1-{3-[(hydroxyamino)carbonyl]phenyl}ethyl)-1-methyl-1H-pyrrole-2-carboxamide]"
6,6.30 to 7.00,"CC(NC(=O)c1cc2cc(Cl)ccc2o1)c1cccc(C(=O)NO)c1 (stereo not drawn) [Compound I-226, 5-chloro-N-(1-{3-[(hydroxyamino)carbonyl]phenyl}ethyl)-1-benzofuran-2-carboxamide]"
7,> 7.00,"CC(C)C(NC(=O)c1cnc2ccccc2n1)c1ccc(C(=O)NO)cc1 (stereo not drawn) [Compound I-190, N-(1-{4-[(hydroxyamino)carbonyl]phenyl}-2-methylpropyl)quinoxaline-2-carboxamide]"
8,6.30 to 7.00,"C[C@H](NC(=O)c1cc2ccccc2n1C)c1cccc(C(=O)NO)c1 [Compound I-294, N-((1S)-1-{3-[(hydroxyamino)carbonyl]phenyl}ethyl)-1-methyl-1H-indole-2-carboxamide]"
9,6.30 to 7.00,"CC(NC(=O)Nc1ccc(Oc2ccccc2)cc1)c1ccc(C(=O)NO)cc1 (stereo not drawn) [Compound I-20, N-hydroxy-4-[1-({[(4-phenoxyphenyl)amino]carbonyl}amino)ethyl]benzamide]"
10,> 7.00,"CC(NC(=O)c1ccc2ncsc2c1)c1ccc(C(=O)NO)cc1 (stereo not drawn) [Compound I-360, N-(1-{4-[(hydroxyamino)carbonyl]phenyl}ethyl)-1,3-benzothiazole-6-carboxamide]"
11,> 7.00,"CC(C)C(NC(=O)C12CC3CC(CC(C3)C1)C2)c1ccc(C(=O)NO)cc1 (stereo not drawn) [Compound I-58, N-(1-{4-[(hydroxyamino)carbonyl]phenyl}-2-methylpropyl)adamantane-1-carboxamide]"
12,6.30 to 7.00,"CC(C)C(NC(=O)C1CCCC1)c1ccc(C(=O)NO)cc1 (stereo not drawn) [Compound I-255, 4-{1-[(cyclopentylcarbonyl)amino]-2-methylpropyl}-N-hydroxybenzamide]"
13,6.30 to 7.00,"CC(C)[C@H](NC(=O)c1cc2ccccc2s1)c1ccc(C(=O)NO)cc1 [Compound I-67, N-((1S)-1-{4-[(hydroxyamino)carbonyl]phenyl}-2-methylpropyl)-1-benzothiophene-2-carboxamide]"
14,> 7.00,"CC(NC(=O)C12CC3CC(CC(C3)C1)C2)c1ccc(C(=O)NO)cc1 (stereo not drawn) [Compound I-3, N-(1-{4-[(hydroxyamino)carbonyl]phenyl}ethyl)adamantane-1-carboxamide]"
15,6.30 to 7.00,"COc1ccc(S(=O)(=O)NC(C)c2ccc(C(=O)NO)cc2)cc1 (stereo not drawn) [Compound I-47, N-hydroxy-4-(1-{[(4-methoxyphenyl)sulfonyl]amino}ethyl)benzamide]"
16,> 7.00,"CC(C)[C@@H](NC(=O)C12CC3CC(CC(O)(C3)C1)C2)c1ccc(C(=O)NO)cc1 [Compound I-223, 3-hydroxy-N-((1R)-1-{4-[(hydroxyamino)carbonyl]phenyl}-2-methylpropyl)adamantane-1-carboxamide]"
17,6.30 to 7.00,"CC(NC(=O)Nc1cc(Cl)cc(Cl)c1)c1ccc(C(=O)NO)cc1 (stereo not drawn) [Compound I-388, 4-[1-({[(3,5-dichlorophenyl)amino]carbonyl}amino)ethyl]-N-hydroxybenzamide]"
18,6.30 to 7.00,"COc1ccc(C(=O)N[C@H](C)c2cccc(C(=O)NO)c2)cc1 [Compound I-193, N-hydroxy-3-{(1R)-1-[(4-methoxybenzoyl)amino]ethyl}benzamide]"
19,6.30 to 7.00,"CC(NC(=O)c1c2c(nn1C)CCCC2)c1ccc(C(=O)NO)cc1 (stereo not drawn) [Compound I-114, N-(1-{4-[(hydroxyamino)carbonyl]phenyl}ethyl)-2-methyl-4,5,6,7-tetrahydro-2H-indazole-3-carboxamide]"
20,> 7.00,"COc1ccc(C)cc1NC(=O)NC(C)c1ccc(C(=O)NO)cc1 (stereo not drawn) [Compound I-253, N-hydroxy-4-[1-({[(2-methoxy-5-methylphenyl)amino]carbonyl}amino)ethyl]benzamide]"
